In patent US9791449B2, “Ovarian cancer stem cells and methods of isolation and uses thereof” (THE GENERAL HOSPITAL CORPORATION, priority 2011, dated 2017):
“Also recorded” adds a separate entry of the source.

Columns and labels:
[1] = system: ovarian cancer cells marked by CD44, CD24, and Epcam (3+); settings: after treatment with chemotherapeutics; cited from earlier work
[2] = system: OVCAR-5 cells; assay: Cell proliferation assay in monolayer (trypan blue count plus flow cytometry); type: cell-based, human; settings: for proliferation of 3+/Ecad+ population / proliferation of 3+/Ecad− population: OVCAR-5, doxorubicin 60 nM, 1, 2 and 3 days
Description: OVCAR-5 cells were seeded in T-75 flasks at different densities (1.6×10^6, 1.2×10^6, 0.8×10^6 cells) with DMEM in 10% FCS, incubated for 24 h, and then treated with either PBS (control) or 60 nM doxorubicin for 24, 48, and 72 h. Cells seeded at 0.8×10^6 were also treated with cisplatin (0.2, 0.5, 1 μM) for 72 h. Harvested total viable cells were counted by trypan blue staining in a hemocytometer and stained with antihuman CD24-PE, anti-mouse/human CD44-APC/Cy7, anti-human Epcam-APC, and anti-human Ecadherin-FITC. Flow cytometry was performed to analyze for the absolute number of 3+/Ecad− and 3+/Ecad+ cells, which were calculated from the total viable cell numbers by analyzing the percentage of each population adjusted for seeding density (1×, 1.5×, and 2×, respectively).

[3] = system: 3+/Ecad− OVCAR-5 cells; assay: Colony formation assay of FACS-separated cells; type: cell-based, human; settings: OVCAR-5 3+/Ecad− cells, 2000 cells in six-well plates, MIS 30 ug/ml or Doxorubicin 30 nM vs media, 14 days
Description: Colony formation was performed as previously described (4; wei 2010). 3+/Ecad− or 3−/Ecad+ cells separated from the ovarian cancer cell lines were treated with MIS or doxorubicin, cisplatin, or taxol, then plated on 6-well plates containing 2 ml/well complete DMEM medium at 500, 1000, or 2000 cells/well, and incubated for 14 days at 37° C., with a media change at day 7. Cells separated from primary ascites were plated on 12-well plates coated by metrigel or by agarose for colony formation assays at 25,000, 50,000, or 100,000 cells/well. Cells were seeded on 1:2 metrigel or in 0.4% agarose over a 0.8% layer, and incubated for 3-4 weeks at 37° C. At day 14 (cell lines) or day 21 (ascites), plates were washed with 1×PBS, and cells fixed with methanol. Resulting colonies were stained with Giemsa and the stained area captured and analyzed using Image J (Rasband, NIH, USA, http://rsb.info.nih.gov/ij/). Large colonies greater than 4 mm at 10× magnification were also counted and compared.

[4] = system: OVCAR-5 cells; assay: Cell cycle analysis by flow cytometry; type: cell-based, human
Description: OVCAR-5 was grown to 50-60% confluency in DMEM with 10% FCS, untreated or treated with 100 μg/mL (714 nM) MIS or 60 nM doxorubicin for 48 h, harvested, and incubated with 10 μg/mL Hoechst 33342 at 37° C. for 30 min or 40 μg/mL propidium iodide (Sigma) at 25° C. for 30 min. Cells were stained with anti-human CD24-PE, anti-mouse/human CD44-APC/Cy7, anti-human Epcam-APC, and anti-human Ecadherin-FITC for 20 min at 4° C. and fixed in paraformaldehyde (1%), and the cell cycle was analyzed using the SORP LSRII.

[5] = system: MOVCAR-7 and MOVCAR-8 cell lines; assay: qPCR of CDK inhibitor mRNAs relative to GAPDH; type: cell-based, mouse
Description: Total microRNA (miRNAs) were extracted from the different cell lines HOSE-4, HOSE-6, OVCAR-5, OVCAR-3, OVCAR-8, IGROV-1, and SKOV-3 using the miRNeasy Mini kit (QIAGEN) and reverse-transcribed to cDNAs using the TaqMan MicroRNA Reverse Transcription Kit (Applied Biosystems). Levels of Let-7c miRNAs were measured by quantitative PCR using TagMan Let-7 probes (Applied Biosystems; part no. 4373167) with U47 RNA as internal standard for normalization. Total mRNAs were also extracted from separated and unseparated OVCAR-5, MOVCAR-7, and MOVCAR-8 cell lines using an RNeasy Mini kit (QIAGEN) and reverse-transcribed to cDNAs using the SuperScript III Reverse Transcription Kit (Invitrogen). Levels of Lin28 and cyclin-dependent kinase (CDK) inhibitor mRNAs were measured by quantitative PCR with GAPDH as an internal standard using the following primers: […]
LIN28 F ([…])(SEQ ID NO: 34) and R ([…])(SEQ ID NO: 35); p15 F ([…])(SEQ ID NO: 36) and R ([…])(SEQ ID NO: 37); p16 F ([…])(SEQ ID NO: 38) and R ([…])(SEQ ID NO: 39); p18 F ([…])(SEQ ID NO: 40) and R ([…])(SEQ ID NO: 41); p19F ([…])(SEQ ID NO: 42) and R ([…])(SEQ ID NO: 43); p21 F ([…])(SEQ ID NO: 44) and R ([…])(SEQ ID NO: 45); p27 F ([…])(SEQ ID NO: 46) and R ([…])(SEQ ID NO: 47); CDK2 F ([…])(SEQ ID NO: 48) and R ([…])(SEQ ID NO: 49); CDK4 F ([…])(SEQ ID NO: 50) and R([…])(SEQ ID NO: 51); CDK6 F ([…])(SEQ ID NO: 52) and R ([…])(SEQ ID NO: 53); and GAPDH F ([…])(SEQ ID NO: 54) and R ([…])(SEQ ID NO: 55). Relative fold changes of Let-7c miRNAs and Lin28 and CDK inhibitor mRNAs were calculated as ΔCt or ΔΔCt (1) (n=3 for each primer).

[6] = OVCAR-5, cisplatin 0.2, 0.5 and 1 μM, 3 d, absolute cell number
[7] = absolute cell number, listed as Doxorubicin

| SMILES | relative numbers of 3+ enriched population compared to 3− cells [1] | proliferation of total viable cells ([2]; OVCAR-5, cisplatin 0.2, 0.5 and 1 μM, 3 d) | proliferation of 3+Ecad− population [2, 6] | proliferation of 3−Ecad+ population [2, 6] | proliferation of 3+Ecad− population ([2]; OVCAR-5, cisplatin 0.2, 0.5 and 1 μM, 3 d, absolute cell number, listed as Cisplatin) | proliferation of 3+/Ecad+ population ([2]; absolute cell number) | proliferation of 3+/Ecad− population ([2]; absolute cell number) | proliferation of 3+/Ecad+ population [2, 7] | proliferation of 3+/Ecad− population [2, 7] | proliferation of total viable cells ([2]; unseparated OVCAR-5, doxorubicin 60 nM, 1, 2 and 3 days) | proliferation of total viable cells ([2]; unseparated OVCAR-5, doxorubicin 60 nM, 1, 2 and 3 days, listed as Doxorubicin) | colony formation of 3+/Ecad− cells [3] | colony formation of 3+/Ecad− cells ([3]; listed as Doxorubicin) | percentage of 3+/Ecad− cells in G1 ([4]; 100 μg/mL (714 nM) MIS or 60 nM doxorubicin, 48 h) | S or G2 distributions of either 3+Ecad− or 3−Ecad+ ([4]; doxorubicin 60 nM, 2 d) | p15 expression ([5]; MOVCAR-7 and -8, 50 μg/mL MIS or 60 nM doxorubicin vs vehicle, 4 h) | other CDK inhibitors mRNA levels (p18, p19, p21, p27) ([5]; MOVCAR-7 or -8, 50 μg/mL MIS or 60 nM doxorubicin, 4 h) | kinases tested (CDK2, CDK4, CDK6) ([5]; transgenic cell lines treated with MIS or doxorubicin, data not shown) |
| --- | --- | --- | --- | --- | --- | --- | --- | --- | --- | --- | --- | --- | --- | --- | --- | --- | --- | --- |
| N.N.[Cl][Pt][Cl] [cisplatin] | increased | inhibits proliferation | increased | inhibits proliferation | stimulates | – | – | – | – | – | – | – | – | – | – | – | – | – |
| COc1cccc2c1C(=O)c1c(O)c3c(c(O)c1C2=O)C[C@@](O)(C(=O)CO)C[C@@H]3O[C@H]1C[C@H](N)[C@H](O)[C@H](C)O1 [doxorubicin, reference compound] | increased | – | – | – | – | decreased | paradoxically increased | inhibits proliferation | stimulates | significant inhibition | inhibits proliferation | significantly increased number of colonies; also recorded: significantly increases; also recorded: stimulated; also recorded: paradoxically increased; also recorded: significantly increased colony numbers | paradoxically increased significantly | decreased | did not statistically affect | decreased; also recorded: significant and opposite responses | did not regulate significantly | unaffected |
| CC(=O)O[C@H]1C(=O)[C@@]2(C)[C@H]([C@H](OC(=O)c3ccccc3)[C@]3(O)C[C@H](OC(=O)[C@H](O)[C@@H](NC(=O)c4ccccc4)c4ccccc4)C(C)=C1C3(C)C)[C@]1(OC(C)=O)CO[C@@H]1C[C@@H]2O [paclitaxel] | increased | – | – | – | – | – | – | – | – | – | – | – | – | – | – | – | – | – |
